Reference: patent publication US8598202B2, “Aryl-hydroxyethylamino-pyrimidines and triazines as modulators of fatty acid amide hydrolase” (Janssen Pharmaceutica NV, priority 2008, dated 2013)

How the values were obtained:
FAAH = molecular target: T1, FAAH (Homo sapiens, UniProt O00519); test: Assay Method 1: FAAH assay, 3H-anandamide hydrolysis in homogenate of T84 cells or SK-N-MC cells transfected with human FAAH
T1 sequence (O00519 1-579): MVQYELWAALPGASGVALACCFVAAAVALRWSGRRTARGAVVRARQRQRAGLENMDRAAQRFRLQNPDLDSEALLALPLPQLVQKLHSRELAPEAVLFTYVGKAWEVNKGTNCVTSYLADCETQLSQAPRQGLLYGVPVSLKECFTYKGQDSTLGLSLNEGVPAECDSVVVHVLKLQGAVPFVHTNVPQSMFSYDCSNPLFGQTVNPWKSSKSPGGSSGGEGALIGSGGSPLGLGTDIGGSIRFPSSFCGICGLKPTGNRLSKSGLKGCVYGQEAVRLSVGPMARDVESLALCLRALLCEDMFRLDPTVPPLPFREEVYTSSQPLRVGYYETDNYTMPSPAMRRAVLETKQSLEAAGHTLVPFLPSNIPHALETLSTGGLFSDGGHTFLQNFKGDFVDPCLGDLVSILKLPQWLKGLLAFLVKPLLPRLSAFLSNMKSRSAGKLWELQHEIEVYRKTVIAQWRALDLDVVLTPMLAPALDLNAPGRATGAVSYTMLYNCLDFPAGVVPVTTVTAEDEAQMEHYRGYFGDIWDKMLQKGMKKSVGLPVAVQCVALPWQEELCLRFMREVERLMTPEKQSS

Rat FAAH-1 = molecular target: T2, Rat FAAH-1 (Rattus norvegicus, UniProt P97612); test: Assay Method 2: rat FAAH-1 assay, 3H-anandamide hydrolysis in homogenate of SK-N-MC cells transfected with rat FAAH
T2 sequence (P97612 1-579): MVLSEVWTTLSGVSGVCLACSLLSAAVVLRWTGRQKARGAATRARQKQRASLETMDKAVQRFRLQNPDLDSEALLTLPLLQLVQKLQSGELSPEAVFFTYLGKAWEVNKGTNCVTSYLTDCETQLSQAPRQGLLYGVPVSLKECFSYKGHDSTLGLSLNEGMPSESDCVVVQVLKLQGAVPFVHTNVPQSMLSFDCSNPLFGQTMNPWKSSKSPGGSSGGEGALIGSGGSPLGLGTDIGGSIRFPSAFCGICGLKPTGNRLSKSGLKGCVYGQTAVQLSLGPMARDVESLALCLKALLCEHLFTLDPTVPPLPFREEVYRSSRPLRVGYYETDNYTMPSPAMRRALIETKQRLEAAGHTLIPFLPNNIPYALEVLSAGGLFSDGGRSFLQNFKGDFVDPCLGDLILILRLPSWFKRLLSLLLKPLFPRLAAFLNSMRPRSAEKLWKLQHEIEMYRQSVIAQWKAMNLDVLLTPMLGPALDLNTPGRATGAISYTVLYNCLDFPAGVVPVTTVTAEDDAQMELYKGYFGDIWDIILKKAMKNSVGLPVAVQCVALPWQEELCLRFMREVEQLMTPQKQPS
Procedure: The assay mixture consisted of 50 μL of the cell homogenate, 10 μL of the test compound, and 40 μL of anandamide [1-^3H-ethanolamine] (^3H-AEA, Perkin-Elmer, 10.3 Ci/mmol), which was added last, for a final tracer concentration of 80 nM. The reaction mixture was incubated at rt for 1 h. During the incubation, 96-well Multiscreen filter plates (catalog number MAFCNOB50; Millipore, Bedford, Mass., USA) were loaded with 25 μL of activated charcoal (Multiscreen column loader, catalog number MACL09625, Millipore) and washed once with 100 μL of MeOH. […] After the 1 h incubation, 60 μL of the reaction mixture were transferred to the charcoal plates, which were then assembled on top of the DYNEX plates using Centrifuge Alignment Frames (catalog number MACF09604, Millipore). The unbound labeled ethanolamine was centrifuged through to the bottom plate (5 min at 2000 rpm), which was preloaded with the scintillant, as described above. The plates were sealed and left at rt for 1 h before counting on a Hewlett Packard TopCount.

Compound	IC50 (FAAH) [nM]	IC50 (Rat FAAH-1) [nM]
OC(CNc1cc(-c2ccc(C(F)(F)F)c(Cl)c2)ncn1)c1cccc(SC(F)(F)F)c1 (stereo not shown) [Example 198, 2-({6-[3-chloro-4-(trifluoromethyl)phenyl]pyrimidin-4-yl}amino)-1-[3-[(trifluoromethyl)sulfanyl]phenyl]ethanol]	92	25
OC(CNc1cc(-c2ccc(C(F)(F)F)c(Cl)c2)ncn1)c1ccc2c(c1)OCCO2 (stereo not shown) [Example 199, 2-({6-[3-Chloro-4-(trifluoromethyl)phenyl]pyrimidin-4-yl}amino)-1-(2,3-dihydro-1,4-benzodioxin-6-yl)ethanol]	500	120
OC(CNc1cc(-c2ccc(C(F)(F)F)c(Cl)c2)ncn1)c1ccc(-n2ccnc2)cc1 (stereo not shown) [Example 200, 2-({6-[3-Chloro-4-(trifluoromethyl)phenyl]pyrimidin-4-yl}amino)-1-[4-(1H-imidazol-1-yl)phenyl]ethanol]	165	1600
OC(CNc1cc(-c2ccc(C(F)(F)F)c(Cl)c2)ncn1)c1csc2ccccc12 (stereo not shown) [Example 201, 1-(1-benzothiophen-3-yl)-2-({6-[3-chloro-4-(trifluoromethyl)phenyl]pyrimidin-4-yl}amino)ethanol]	170	170
COc1ccc(C(O)CNc2cc(-c3ccc(C(F)(F)F)c(Cl)c3)ncn2)cc1OC (stereo not shown) [Example 202, 2-({6-[3-Chloro-4-(trifluoromethyl)phenyl]pyrimidin-4-yl}amino)-1-(3,4-dimethoxyphenyl)ethanol]	225	100
COc1ccc(C(O)CNc2cc(-c3ccc(C(F)(F)F)c(Cl)c3)ncn2)cc1Cl (stereo not shown) [Example 203, 1-(3-Chloro-4-methoxyphenyl)-2-({6-[3-chloro-4-(trifluoromethyl)phenyl]pyrimidin-4-yl}amino)ethanol]	270	200
OC(CNc1cc(-c2ccc(C(F)(F)F)c(Cl)c2)ncn1)c1ccc2c(c1)OCCCO2 (stereo not shown) [Example 204, 2-({6-[3-Chloro-4-(trifluoromethyl)phenyl]pyrimidin-4-yl}amino)-1-(3,4-dihydro-2H-1,5-benzodioxepin-7-yl)ethanol]	548	82
OC(CNc1cc(-c2ccc(C(F)(F)F)c(Cl)c2)ncn1)c1cc(C(F)(F)F)ccc1F (stereo not shown) [Example 205, 2-({6-[3-Chloro-4-(trifluoromethyl)phenyl]pyrimidin-4-yl}amino)-1-[2-fluoro-5-(trifluoromethyl)phenyl]ethanol]	80	14
N#Cc1cccc(C(O)CNc2cc(-c3ccc(C(F)(F)F)c(Cl)c3)ncn2)c1 (stereo not shown) [Example 206, 3-[2-({6-[3-Chloro-4-(trifluoromethyl)phenyl]pyrimidin-4-yl}amino)-1-hydroxyethyl]benzonitrile]	25	15
OC(CNc1cc(-c2ccc(C(F)(F)F)c(Cl)c2)ncn1)c1cc(-c2ccccc2)no1 (stereo not shown) [Example 207, 2-({6-[3-Chloro-4-(trifluoromethyl)phenyl]pyrimidin-4-yl}amino)-1-(3-phenylisoxazol-5-yl)ethanol]	67	111
OC(CNc1cc(-c2ccc(C(F)(F)F)c(Cl)c2)ncn1)c1ccc(N2CCCC2)cc1 (stereo not shown) [Example 208, 2-({6-[3-Chloro-4-(trifluoromethyl)phenyl]pyrimidin-4-yl}amino)-1-(4-pyrrolidin-1-ylphenyl)ethanol]	28	500
OC(CNc1cc(-c2ccc(C(F)(F)F)c(Cl)c2)ncn1)c1ccc(-c2ccccn2)s1 (stereo not shown) [Example 209, 2-({6-[3-Chloro-4-(trifluoromethyl)phenyl]pyrimidin-4-yl}amino)-1-(5-pyridin-2-ylthiophen-2-yl)ethanol]	12	36
N#Cc1cc(C(O)CNc2cc(-c3ccc(C(F)(F)F)c(Cl)c3)ncn2)ccc1F (stereo not shown) [Example 210]	20	20
OC(CNc1cc(-c2ccc(C(F)(F)F)c(Cl)c2)ncn1)c1c(F)cccc1F (stereo not shown) [Example 211, 2-({6-[3-Chloro-4-(trifluoromethyl)phenyl]pyrimidin-4-yl}amino)-1-(2,6-difluorophenyl)ethanol]	56	50
OC(CNc1cc(-c2ccc(C(F)(F)F)c(Cl)c2)ncn1)c1ccccc1F (stereo not shown) [Example 212, 2-({6-[3-Chloro-4-(trifluoromethyl)phenyl]pyrimidin-4-yl}amino)-1-(2-fluorophenyl)ethanol]	65	39
OC(CNc1cc(-c2ccc(C(F)(F)F)c(Cl)c2)ncn1)c1cc(-c2ccc(Cl)c(Cl)c2)no1 (stereo not shown) [Example 213, 2-[6-(3-Chloro-4-trifluoromethyl-phenyl)-pyrimidin-4-ylamino]-1-[3-(3,4-dichloro-phenyl)-isoxazol-5-yl]-ethanol]	22	400
OC(CNc1cc(-c2ccc(C(F)(F)F)c(Cl)c2)ncn1)c1cc(-c2ccc(Cl)cc2)no1 (stereo not shown) [Example 214, 1-[3-(4-Chloro-phenyl)-isoxazol-5-yl]-2-[6-(3-chloro-4-trifluoromethyl-Phenyl)-pyrimidin-4-ylamino]-ethanol]	36	160
OC(CNc1cc(-c2ccc(C(F)(F)F)c(Cl)c2)ncn1)c1cc(-c2ccc(Cl)cc2Cl)no1 (stereo not shown) [Example 215, 2-[6-(3-Chloro-4-trifluoromethyl-phenyl)-pyrimidin-4-ylamino]-1-[3-(2,4-dichloro-phenyl)-isoxazol-5-yl]-ethanol]	240	1000
OC(CNc1cc(-c2ccc(C(F)(F)F)c(Cl)c2)ncn1)c1nc2ccccc2s1 (stereo not shown) [Example 216, 1-Benzothiazol-2-yl-2-[6-(3-chloro-4-trifluoromethyl-phenyl)-pyrimidin-4-ylamino]-ethanol]	> 10000	> 10000
OC(CNc1cc(-c2ccc(C(F)(F)F)c(Cl)c2)ncn1)c1cc(C(F)(F)F)cc(C(F)(F)F)c1 (stereo not shown) [Example 217, 1-[3,5-Bis(trifluoromethyl)phenyl]-2-({6-[3-chloro-4-(trifluoromethyl)phenyl]pyrimidin-4-yl}amino)ethanol]	> 10000	8000
OC(CNc1cc(-c2ccc(C(F)(F)F)c(Cl)c2)ncn1)c1cc2cc(Br)ccc2s1 (stereo not shown) [Example 218, 1-(5-Bromo-1-benzothiophen-2-yl)-2-({6-[3-chloro-4-(trifluoromethyl)phenyl]pyrimidin-4-yl}amino)ethanol]	> 10000	1000
O[C@@H](CNc1cc(-c2ccc(C(F)(C(F)(F)F)C(F)(F)F)cc2)ncn1)c1ccccc1 [Example 219, (1R)-Phenyl-2-{6-[4-(1,2,2,2-tetrafluoro-1-trifluoromethyl-ethyl)-phenyl]-pyrimidin-4-ylamino}-ethanol]	2000	> 10000
O[C@@H](CNc1cc(-c2cccc(C(F)(C(F)(F)F)C(F)(F)F)c2)ncn1)c1ccccc1 [Example 220, (1R)-Phenyl-2-{6-[3-(1,2,2,2-tetrafluoro-1-trifluoromethyl-ethyl)-phenyl]-Pyrimidin-4-ylamino}-ethanol]	42	690
O[C@@H](CNc1cc(-c2ccc3c(C(F)(F)F)csc3c2)ncn1)c1ccccc1 [Example 221]	19	480
Cc1ccc(-c2cc(NCC(O)c3ccccc3)ncn2)cc1C (stereo not shown) [Example 223, 2-{[6-(3,4-Dimethylphenyl)pyrimidin-4-yl]amino}-1-phenylethanol]	144	707
CC(C)(C)c1ccc(-c2cc(NCC(O)c3ccccc3)ncn2)cc1 (stereo not shown) [Example 224, 2-({6-[4-(1,1-Dimethylethyl)phenyl]pyrimidin-4-yl}amino)-1-phenylethanol]	28	538
CSc1ccc(-c2cc(NCC(O)c3ccccc3)ncn2)cc1 (stereo not shown) [Example 225, 2-[6-(4-Methylsulfanyl-phenyl)-Pyrimidin-4-ylamino]-1-phenyl-ethanol]	11	128
N#Cc1ccc(-c2cc(NCC(O)c3ccccc3)ncn2)cc1 (stereo not shown) [Example 226, 4-{6-[(2-Hydroxy-2-phenylethyl)amino]pyrimidin-4-yl}benzonitrile]	341	663
OC(CNc1cc(-c2cc3ccccc3s2)ncn1)c1ccccc1 (stereo not shown) [Example 227, 2-(6-Benzo[b]thiophen-2-yl-pyrimidin-4-ylamino)-1-phenyl-ethanol]	33	216
